The compounds below were run on Hs578T (assay: normalised response (% of control), CellTiter-Glo; higher = more viable cells (100 = DMSO, 0 = benzethonium chloride kill control)). Conditions: incubation time: 72 h.
Procedure: (§1)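 DSRT, 72 h incubation, CellTox Green / CellTiter-Glo readout. Signal is normalised to DMSO and benzethonium chloride controls. Value is the normalised response at dose 3.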
For `O=C(/C=C/c1cccnc1)NCCCCC1CCN(C(=O)c2ccccc2)CC1` [Daporinad] (10 nM), the normalised response was 18.4%. `Nc1ncn([C@H]2C[C@H](O)[C@@H](CO)O2)c(=O)n1` [Decitabine] (100 nM) showed a normalised response of 104%. Work on `CC[C@@H]1C(=O)N(C)c2cnc(Nc3ccc(C(=O)NC4CCN(C)CC4)cc3OC)nc2N1C1CCCC1` [BI 2536] (10 nM) yielded a normalised response of 83.9%.

These compounds were tested on MDA-MB-453 in the same assay as above. Conditions: incubation time: 72 h.
Procedure: as §1
`O=C(O)C1(C(=O)O)CCC1.[NH2-].[NH2-].[Pt+2]` [Carboplatin] (100 nM) gave a normalised response of 94.7%. In the case of `Nc1nc(F)nc2c1ncn2[C@@H]1O[C@H](CO)[C@@H](O)[C@@H]1O` [Fludarabine] (100 nM), the normalised response is reported as 120%. `CNC(=O)c1cc(Oc2ccc(NC(=O)Nc3cc(C(C)(C)C)nn3-c3ccc4ncccc4c3)c(F)c2)ccn1` [Rebastinib] (10 nM) gave a normalised response of 97.1%. `COc1cc2c(Oc3ccc4[nH]c(C)cc4c3F)ncnc2cc1OCCCN1CCCC1` [Cediranib] (10 nM) gave a normalised response of 107%. With `C=CC(=O)N1CCC[C@@H](n2nc(-c3ccc(Oc4ccccc4)cc3)c3c(N)ncnc32)C1` [Ibrutinib] (10 nM) the normalised response was 87.3%. Work on `O=C(Cc1ccc(-c2ccc(OCCN3CCOCC3)cc2)cn1)NCc1ccccc1` [KX2-391] (100 nM) yielded a normalised response of 72.7%. Compound `O=C(/C=C/c1cccnc1)NCCCCC1CCN(C(=O)c2ccccc2)CC1` [Daporinad] (10 nM) has a normalised response of 21.1%. `Nc1ncn([C@H]2C[C@H](O)[C@@H](CO)O2)c(=O)n1` [Decitabine] (100 nM) showed a normalised response of 107%. `CC[C@@H]1C(=O)N(C)c2cnc(Nc3ccc(C(=O)NC4CCN(C)CC4)cc3OC)nc2N1C1CCCC1` [BI 2536] (10 nM) was tested, and the normalised response was 70.5%.

The compounds below were run on MDA-MB-436 in the same assay as above. Conditions: incubation time: 72 h.
Procedure: as §1
In the case of `O=C(O)C1(C(=O)O)CCC1.[NH2-].[NH2-].[Pt+2]` [Carboplatin] (100 nM), the normalised response is reported as 103%. Work on `Nc1nc(F)nc2c1ncn2[C@@H]1O[C@H](CO)[C@@H](O)[C@@H]1O` [Fludarabine] (100 nM) yielded a normalised response of 101%. In the case of `CNC(=O)c1cc(Oc2ccc(NC(=O)Nc3cc(C(C)(C)C)nn3-c3ccc4ncccc4c3)c(F)c2)ccn1` [Rebastinib] (10 nM), the normalised response is reported as 106%. For `COc1cc2c(Oc3ccc4[nH]c(C)cc4c3F)ncnc2cc1OCCCN1CCCC1` [Cediranib] (10 nM), the normalised response was 101%. Work on `C=CC(=O)N1CCC[C@@H](n2nc(-c3ccc(Oc4ccccc4)cc3)c3c(N)ncnc32)C1` [Ibrutinib] (10 nM) yielded a normalised response of 103%. For `O=C(Cc1ccc(-c2ccc(OCCN3CCOCC3)cc2)cn1)NCc1ccccc1` [KX2-391] (100 nM), the normalised response was 39.5%. `O=C(/C=C/c1cccnc1)NCCCCC1CCN(C(=O)c2ccccc2)CC1` [Daporinad] (10 nM) showed a normalised response of 105%. Compound `Nc1ncn([C@H]2C[C@H](O)[C@@H](CO)O2)c(=O)n1` [Decitabine] (100 nM) has a normalised response of 96.5%. Compound `CC[C@@H]1C(=O)N(C)c2cnc(Nc3ccc(C(=O)NC4CCN(C)CC4)cc3OC)nc2N1C1CCCC1` [BI 2536] (10 nM) has a normalised response of 44.2%.

These compounds were tested on CAL-51 in the same assay as above. Conditions: incubation time: 72 h.
Procedure: as §1
`O=C(O)C1(C(=O)O)CCC1.[NH2-].[NH2-].[Pt+2]` [Carboplatin] (100 nM) was tested, and the normalised response was 93.7%. Compound `Nc1nc(F)nc2c1ncn2[C@@H]1O[C@H](CO)[C@@H](O)[C@@H]1O` [Fludarabine] (100 nM) has a normalised response of 94.1%. `CNC(=O)c1cc(Oc2ccc(NC(=O)Nc3cc(C(C)(C)C)nn3-c3ccc4ncccc4c3)c(F)c2)ccn1` [Rebastinib] (10 nM) showed a normalised response of 90.6%. Work on `COc1cc2c(Oc3ccc4[nH]c(C)cc4c3F)ncnc2cc1OCCCN1CCCC1` [Cediranib] (10 nM) yielded a normalised response of 92.7%. In the case of `C=CC(=O)N1CCC[C@@H](n2nc(-c3ccc(Oc4ccccc4)cc3)c3c(N)ncnc32)C1` [Ibrutinib] (10 nM), the normalised response is reported as 113%. For `O=C(Cc1ccc(-c2ccc(OCCN3CCOCC3)cc2)cn1)NCc1ccccc1` [KX2-391] (100 nM), the normalised response was 32.2%. For `O=C(/C=C/c1cccnc1)NCCCCC1CCN(C(=O)c2ccccc2)CC1` [Daporinad] (10 nM), the normalised response was 115%. Work on `Nc1ncn([C@H]2C[C@H](O)[C@@H](CO)O2)c(=O)n1` [Decitabine] (100 nM) yielded a normalised response of 82.4%. For `CC[C@@H]1C(=O)N(C)c2cnc(Nc3ccc(C(=O)NC4CCN(C)CC4)cc3OC)nc2N1C1CCCC1` [BI 2536] (10 nM), the normalised response was 67.2%.

Each compound was assayed on CAL-120 in the same assay as above. Conditions: incubation time: 72 h.
Procedure: as §1
`O=C(O)C1(C(=O)O)CCC1.[NH2-].[NH2-].[Pt+2]` [Carboplatin] (100 nM) showed a normalised response of 99.1%. `Nc1nc(F)nc2c1ncn2[C@@H]1O[C@H](CO)[C@@H](O)[C@@H]1O` [Fludarabine] (100 nM) showed a normalised response of 101%. In the case of `CNC(=O)c1cc(Oc2ccc(NC(=O)Nc3cc(C(C)(C)C)nn3-c3ccc4ncccc4c3)c(F)c2)ccn1` [Rebastinib] (10 nM), the normalised response is reported as 105%. Work on `COc1cc2c(Oc3ccc4[nH]c(C)cc4c3F)ncnc2cc1OCCCN1CCCC1` [Cediranib] (10 nM) yielded a normalised response of 103%. `C=CC(=O)N1CCC[C@@H](n2nc(-c3ccc(Oc4ccccc4)cc3)c3c(N)ncnc32)C1` [Ibrutinib] (10 nM) gave a normalised response of 106%. Compound `O=C(Cc1ccc(-c2ccc(OCCN3CCOCC3)cc2)cn1)NCc1ccccc1` [KX2-391] (100 nM) has a normalised response of 67.8%. In the case of `O=C(/C=C/c1cccnc1)NCCCCC1CCN(C(=O)c2ccccc2)CC1` [Daporinad] (10 nM), the normalised response is reported as 56.2%. `Nc1ncn([C@H]2C[C@H](O)[C@@H](CO)O2)c(=O)n1` [Decitabine] (100 nM) showed a normalised response of 99.4%. For `CC[C@@H]1C(=O)N(C)c2cnc(Nc3ccc(C(=O)NC4CCN(C)CC4)cc3OC)nc2N1C1CCCC1` [BI 2536] (10 nM), the normalised response was 70.5%.

These compounds were tested on HCC1937 in the same assay as above. Conditions: incubation time: 72 h.
Procedure: as §1
`O=C(O)C1(C(=O)O)CCC1.[NH2-].[NH2-].[Pt+2]` [Carboplatin] (100 nM) gave a normalised response of 94.2%. Work on `Nc1nc(F)nc2c1ncn2[C@@H]1O[C@H](CO)[C@@H](O)[C@@H]1O` [Fludarabine] (100 nM) yielded a normalised response of 98.3%.

Reference: the supplement of paper PMC4862054
